PMC4945996 (Journal of the American Chemical Society, 2016)
Several values for one entry are separate records, joined by “and”; a condition that tells them apart may be missing. Equal values may be shown once. Read-outs that look alike come from different tables or passages of the source.

Experiments:
human MIF [1] = molecular target: T1, human MIF (Homo sapiens, UniProt P14174); assay: Competitive fluorescence polarization; assay type: binding; details: for Kd: 0.004 μM tracer B, […] MIF, pH 7.4, Kd from IC50 via eq 1
T1 sequence (P14174 2-115 limits assumed): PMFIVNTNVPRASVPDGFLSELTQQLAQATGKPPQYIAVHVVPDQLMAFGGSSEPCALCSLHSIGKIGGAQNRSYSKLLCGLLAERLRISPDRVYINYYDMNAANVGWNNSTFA

MIF [2] = details: covalent inhibitor: result is time-dependent; cited from earlier work
human MIF [3] = molecular target: T1, human MIF; assay: HPP tautomerase assay; assay type: biochemical; details: for Ki: tautomerase inhibition, HPP substrate, pH 6–6.1
MIF [4] = details: cited from earlier work
MIF [5] = details: DOPA assay; cited from earlier work
MIF binding to CD74 = details: blocking binding of MIF to CD74; cited from earlier work

Structure (SMILES): Ic1cc(-c2ccccc2)ncn1 [4-IPP]
- Kd (human MIF [1]): 446 nM
- time dependence of FP results (human MIF [1]; FP monitored for 1 h after the 20 min incubation): time dependent
- IC50 (MIF [2]): 4500 nM

Structure (SMILES): COc1ccc(Oc2cn(-c3ccc(O)c(F)c3)nn2)cc1 [5a]
- Ki (human MIF [3]): 1900 nM

Structure (SMILES): O=C(O)c1ccc(Oc2cn(-c3ccc(O)c(F)c3)nn2)cc1 [5b]
- Ki (human MIF [3]): 1700 nM

Structure (SMILES): O=C1Oc2cc(O)ccc2CN1C1CCCCC1 [NVS-1]
- fold weaker binding (cyclohexyl analogue vs NVS-2) (human MIF [1]): ca. 10 fold
- Kd (human MIF [1]; Kd): 456 nM
- Ki (human MIF [3]): 569 nM

Structure (SMILES): COc1ccc(N2Cc3ccc(O)cc3OC2=O)cc1 [NVS-2]
- fold stronger binding than NVS-6 (human MIF [1]): 3 fold
- ligand efficiency (human MIF [1]; (−2.3RT/HAC) log Kd): 0.50
- Ki (human MIF [3]): ~30 nM and 30 nM
- fold more potent than (R)-ISO-1 (human MIF [3]; from Ki values): roughly 1000 fold
- IC50 (MIF [4]; HPP tautomerase assay): 20 nM
- IC50 (MIF [4]; previously reported): 20 nM

Structure (SMILES): O=C1Oc2cc(O)ccc2CN1c1ccc(O)cc1 [NVS-6]
- Kd (human MIF [1]; Kd): 159 nM
- Ki (human MIF [3]): 185 nM

Structure (SMILES): O=c1c(-c2ccc(O)c(O)c2)coc2cc(O)ccc12 [Orita-13]
- Ki (MIF [5]): 38 nM

Structure (SMILES): COc1cc(-c2ccc(N=Nc3ccc4c(S(=O)(=O)O)cc(S(=O)(=O)O)c(N)c4c3O)c(OC)c2)ccc1N=Nc1ccc2c(S(=O)(=O)O)cc(S(=O)(=O)O)c(N)c2c1O [PSB]
- IC50 (MIF binding to CD74): 810 nM
